# Data reported in PubChem BioAssay (NCI).
#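 Cells were grown in 96-well plates and exposed to each compound for 48 hours at five concentrations; endpoints were interpolated linearly between bracketing concentrations, or set to the highest concentration if not reached. GI50 = concentration required for 50% inhibition of growth. At the TGI there is no net growth.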
# How the values were obtained:
# Experiment in all cases: NCI-60 cell line screen, 48 h
# [1] = tested on: DU-145 prostate
# [2] = tested on: RXF 393 renal
# [3] = tested on: OVCAR-4 ovarian
# [4] = tested on: TK-10 renal
# [5] = tested on: IGROV1 ovarian
# [6] = tested on: OVCAR-3 ovarian
# [7] = tested on: HCT-116 colon
# [8] = tested on: SK-MEL-2 melanoma
# [9] = tested on: HT29 colon
# [10] = tested on: NCI-H226 lung
# [11] = tested on: NCI-H522 lung
# [12] = tested on: HOP-62 NSCLC
# [13] = tested on: HOP-92 NSCLC
# [14] = tested on: SF-539 CNS
# [15] = tested on: COLO 205 colon
# [16] = tested on: A498 renal
# [17] = tested on: SK-MEL-28 melanoma
# [18] = tested on: UACC-257 melanoma
# [19] = tested on: SF-268 CNS
# [20] = tested on: SF-295 CNS
# [21] = tested on: MALME-3M melanoma
# [22] = tested on: HCT-15 colon
# [23] = tested on: LOX IMVI melanoma
# [24] = tested on: T-47D breast
# [25] = tested on: A549 NSCLC
# [26] = tested on: HCC-2998 colon
# [27] = tested on: SR leukemia
# [28] = tested on: SK-OV-3 ovarian
# [29] = tested on: MOLT-4 leukemia
# [30] = tested on: EKVX NSCLC
# [31] = tested on: SW-620 colon
# [32] = tested on: MDA-MB-231 breast
# [33] = tested on: HL-60(TB) leukemia
# [34] = tested on: SN12C renal
# [35] = tested on: K-562 leukemia
# [36] = tested on: 786-0 renal
# [37] = tested on: MDA-MB-468 breast
# [38] = tested on: OVCAR-5 ovarian
# [39] = tested on: ACHN renal
# [40] = tested on: HS 578T breast
# [41] = tested on: PC-3 prostate
# [42] = tested on: MDA-MB-435
# [43] = tested on: CCRF-CEM leukemia
# [44] = tested on: NCI-H460 lung
# [45] = tested on: SNB-19 CNS
# [46] = tested on: MCF7 breast
# [47] = tested on: NCI-H23 lung
# [48] = tested on: UACC-62 melanoma
# [49] = tested on: U251 CNS
# [50] = tested on: UO-31 renal
# [51] = tested on: CAKI-1 renal
# [52] = tested on: SK-MEL-5 melanoma
# [53] = tested on: OVCAR-8 ovarian
# [54] = tested on: RPMI-8226 leukemia
# [55] = tested on: M14 melanoma
# [56] = tested on: BT-549 breast
# [57] = tested on: KM12 colon
structure (smiles),measurement,setting,value
CN(C)c1nc(NCCNS(=O)(=O)c2ccc(C(=O)/C=C/c3ccc(C(F)(F)F)cc3)cc2)nc(N2CCOCC2)n1,GI50,[1],15.4 µM
same,TGI,[1],28.9 µM
same,GI50,[2],11.5 µM
same,TGI,[2],23.7 µM
same,GI50,[3],14.8 µM
same,TGI,[3],28.9 µM
same,GI50,[4],15.5 µM
same,TGI,[4],29.5 µM
same,GI50,[5],1.77 µM
same,TGI,[5],3.51 µM
same,GI50,[6],16.4 µM
same,TGI,[6],30.6 µM
same,GI50,[7],3.19 µM
same,TGI,[7],10 µM
same,GI50,[8],16.3 µM
same,TGI,[8],30.4 µM
same,GI50,[9],2.06 µM
same,TGI,[9],4.51 µM
same,GI50,[10],16.1 µM
same,TGI,[10],35.6 µM
same,GI50,[11],15.2 µM
same,TGI,[11],29.8 µM
same,GI50,[12],17 µM
same,TGI,[12],32.3 µM
same,GI50,[13],15.2 µM
same,TGI,[13],31.5 µM
same,GI50,[14],13 µM
same,TGI,[14],25.7 µM
same,GI50,[15],15 µM
same,TGI,[15],32.4 µM
same,GI50,[16],13.3 µM
same,TGI,[16],26.6 µM
same,GI50,[17],14.4 µM
same,TGI,[17],27.5 µM
same,GI50,[18],15.3 µM
same,TGI,[18],29.4 µM
same,GI50,[19],16.3 µM
same,TGI,[19],37.8 µM
same,GI50,[20],8.11 µM
same,TGI,[20],20.6 µM
same,GI50,[21],14.4 µM
same,TGI,[21],27.6 µM
same,GI50,[22],1.86 µM
same,TGI,[22],3.62 µM
same,GI50,[23],1.68 µM
same,TGI,[23],3.16 µM
same,GI50,[24],5.5 µM
same,TGI,[24],27.2 µM
same,GI50,[25],13.8 µM
same,TGI,[25],29.3 µM
same,GI50,[26],12.9 µM
same,TGI,[26],26 µM
same,GI50,[27],6.31 µM
same,TGI,[27],> 100 µM
same,GI50,[28],14.7 µM
same,TGI,[28],29.5 µM
same,GI50,[29],3.48 µM
same,TGI,[29],> 100 µM
same,GI50,[30],14.3 µM
same,TGI,[30],27.4 µM
same,GI50,[31],3.3 µM
same,TGI,[31],11.1 µM
same,GI50,[32],11.7 µM
same,TGI,[32],24.2 µM
same,GI50,[33],5.12 µM
same,TGI,[33],86.3 µM
same,GI50,[34],12.5 µM
same,TGI,[34],25 µM
same,GI50,[35],3.21 µM
same,TGI,[35],> 100 µM
same,GI50,[36],14.5 µM
same,TGI,[36],28.2 µM
same,GI50,[37],5.11 µM
same,TGI,[37],18.4 µM
same,GI50,[38],14.5 µM
same,TGI,[38],27.7 µM
same,GI50,[39],8.6 µM
same,TGI,[39],20.7 µM
same,GI50,[40],17.8 µM
same,TGI,[40],64.4 µM
same,GI50,[41],10.8 µM
same,TGI,[41],25.4 µM
same,GI50,[42],10.3 µM
same,TGI,[42],23 µM
same,GI50,[43],3.2 µM
same,TGI,[43],> 100 µM
same,GI50,[44],16.1 µM
same,TGI,[44],32.5 µM
same,GI50,[45],13.5 µM
same,TGI,[45],26.4 µM
same,GI50,[46],1.68 µM
same,TGI,[46],3.34 µM
same,GI50,[47],13 µM
same,TGI,[47],26.2 µM
same,GI50,[48],11.2 µM
same,TGI,[48],23.3 µM
same,GI50,[49],2.95 µM
same,TGI,[49],11 µM
same,GI50,[50],11.9 µM
same,TGI,[50],24.2 µM
same,GI50,[51],11.4 µM
same,TGI,[51],24.3 µM
same,GI50,[52],15.8 µM
same,TGI,[52],29.5 µM
same,GI50,[53],14.4 µM
same,TGI,[53],28.1 µM
same,GI50,[54],1.77 µM
same,TGI,[54],5.72 µM
same,GI50,[55],9.83 µM
same,TGI,[55],22.2 µM
same,GI50,[56],15.6 µM
same,TGI,[56],29.3 µM
same,GI50,[57],8.95 µM
same,TGI,[57],25.5 µM
